# Read-outs that look alike come from different tables or passages of the source. Starred links: 1 amine or outer side, 2 acyl side, 3 side chain; linkers in the order of their positions; H or OH if unused. Positions of bridges follow the written chain, without caps; N, C: chain ends. Residues, ends and D or L forms follow the SMILES beside them. Groups on a side chain read outwards from the residue. *: point of attachment. C20 diacid = O=C(O)CCCCCCCCCCCCCCCCCCC(=O)*; γGlu = O=C(O)[C@H](CCC(=O)[*:2])N[*:1]; AEEA = NCCOCCOCC(=O)O
# Assay: Assay (IV) determination of solubility
# Format: physicochemical
# How it was run: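 Polypeptide in water (~500 nmol/ml) mixed 1:1 with 100 mM glycylglycine (pH 3.0–5.0) or bistrispropane (pH 6.0–8.0) buffers. Held 18 hours at room temperature, then centrifuged. Polypeptide remaining in solution quantified by HPLC.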
# [1] = pH 3, pH 3.0, read-out: Solubility pH 3.0
# [2] = pH 4, pH 4.0, 18 hours at room temperature, Table 2, read-out: Solubility pH 4.0
# [3] = pH 4, pH 4.0, read-out: Solubility pH 4.0
# [4] = pH 5, pH 5.0, read-out: Solubility pH 5.0
# [5] = pH 6, pH 6.0, read-out: Solubility pH 6.0
# [6] = pH 6.5, pH 6.5, read-out: Solubility pH 6.5
# [7] = pH 7, pH 7.0, 18 hours at room temperature, Table 3, read-out: Solubility pH 7.0
# [8] = pH 7, pH 7.0, read-out: Solubility pH 7.0
# [9] = pH 7.5, pH 7.5, read-out: Solubility pH 7.5
# [10] = pH 8, pH 8.0, read-out: Solubility pH 8.0
solubility [1],solubility [2],solubility [3],solubility [4],solubility [5],solubility [6],solubility [7],solubility [8],solubility [9],solubility [10],SMILES
> 200 µM,> 200 µM,> 200 µM,> 200 µM,> 200 µM,> 200 µM,> 200 µM,> 200 µM,> 200 µM,> 200 µM,"CC[C@H](C)[C@H](NC(=O)[C@@H]1CCCN1C(=O)CNC(=O)[C@H](Cc1ccccc1)NC(=O)[C@H](CC(N)=O)NC(=O)[C@H](C)NC(=O)[C@H](CO)NC(=O)[C@H](CO)NC(=O)[C@H](Cc1c[nH]cn1)NC(=O)[C@H](Cc1c[nH]cn1)NC(=O)[C@H](CC(C)C)NC(=O)[C@H](Cc1ccccc1)NC(=O)[C@H](CCC(=O)O)NC(=O)[C@H](C)NC(=O)[C@H](CC(C)C)NC(=O)[C@H](CCCNC(=N)N)NC(=O)[C@H](CCC(N)=O)NC(=O)[C@@H](NC(=O)[C@H](C)NC(=O)[C@@H]1CSSC[C@H](NC(=O)[C@H](CCCCN)NC(=O)COCCOCCNC(=O)COCCOCCNC(=O)CC[C@H](NC(=O)CCCCCCCCCCCCCCCCCCC(=O)O)C(=O)O)C(=O)N[C@@H](CC(N)=O)C(=O)N[C@@H]([C@@H](C)O)C(=O)N[C@@H](C)C(=O)N[C@@H]([C@@H](C)O)C(=O)N1)[C@@H](C)O)C(=O)N[C@@H](CC(C)C)C(=O)N1CCC[C@H]1C(=O)N1CCC[C@H]1C(=O)N[C@H](C(=O)N[C@@H](CC(N)=O)C(=O)N[C@H](C(=O)NCC(=O)N[C@@H](CO)C(=O)N[C@@H](CC(N)=O)C(=O)N[C@H](C(=O)N1CCC[C@H]1C(N)=O)[C@@H](C)O)C(C)C)[C@@H](C)O [Example 169, N-alpha-[2-(2-{2-[2-(2-{2-[(S)-4-Carboxy-4-(19-carboxyheptadecanoylamino)butyrylamino]ethoxy}ethoxy)acetylamino]ethoxy}ethoxy)acetyl]-[Glu14,His17,Ala21,Pro37]-pramlintide] ({C20 diacid-γGlu-AEEA-AEEA}-KCNTATCATQRLAEFLHHSSANFGPILPPTNVGSNTP-NH2; disulfide 2-7)"
> 200 µM,172 µM,172 µM,150 µM,25 µM,27 µM,–,6 µM,4 µM,3 µM,"CC[C@H](C)[C@H](NC(=O)[C@@H]1CCCN1C(=O)CNC(=O)[C@H](Cc1ccccc1)NC(=O)[C@H](CC(N)=O)NC(=O)[C@H](CCCCNC(=O)COCCOCCNC(=O)COCCOCCNC(=O)CC[C@H](NC(=O)CCCCCCCCCCCCCCCCCCC(=O)O)C(=O)O)NC(=O)[C@H](CO)NC(=O)[C@H](CO)NC(=O)[C@H](Cc1c[nH]cn1)NC(=O)[C@@H](NC(=O)[C@H](CC(C)C)NC(=O)[C@H](Cc1ccccc1)NC(=O)[C@H](CCC(=O)O)NC(=O)[C@H](C)NC(=O)[C@H](CC(C)C)NC(=O)[C@H](CCCNC(=N)N)NC(=O)[C@H](CCC(N)=O)NC(=O)[C@@H](NC(=O)[C@H](C)NC(=O)[C@@H]1CSSC[C@H](NC(=O)[C@@H](N)CCCCN)C(=O)N[C@@H](CC(N)=O)C(=O)N[C@@H]([C@@H](C)O)C(=O)N[C@@H](C)C(=O)N[C@@H]([C@@H](C)O)C(=O)N1)[C@@H](C)O)C(C)C)C(=O)N[C@@H](CC(C)C)C(=O)N[C@@H](CO)C(=O)N[C@@H](CO)C(=O)N[C@H](C(=O)N[C@@H](CC(N)=O)C(=O)N[C@H](C(=O)NCC(=O)N[C@@H](CO)C(=O)N[C@@H](Cc1c[nH]cn1)C(=O)N[C@H](C(=O)N[C@@H](Cc1ccc(O)cc1)C(N)=O)[C@@H](C)O)C(C)C)[C@@H](C)O [Example 131, N-epsilon21-[2-(2-{2-[2-(2-{2-[(S)-4-Carboxy-4-(19-carboxyheptadecanoylamino)butyrylamino]ethoxy}ethoxy)acetylamino]ethoxy}ethoxy)acetyl]-[Glu14,Lys21,Ser28,Ser29,His35]-pramlintide] (H-KCNTATCATQRLAEFLVHSSK([AEEA-AEEA-γGlu-C20 diacid])NFGPILSSTNVGSHTY-NH2; disulfide 2-7)"
> 200 µM,> 200 µM,> 200 µM,> 200 µM,> 200 µM,198 µM,142 µM,142 µM,169 µM,> 200 µM,"CC[C@H](C)[C@H](NC(=O)[C@@H]1CCCN1C(=O)CNC(=O)[C@H](Cc1ccccc1)NC(=O)[C@H](CC(N)=O)NC(=O)[C@H](CCCCNC(=O)COCCOCCNC(=O)COCCOCCNC(=O)CC[C@H](NC(=O)CCCCCCCCCCCCCCCCCCC(=O)O)C(=O)O)NC(=O)[C@H](CO)NC(=O)[C@H](CO)NC(=O)[C@H](Cc1c[nH]cn1)NC(=O)[C@@H](NC(=O)[C@H](CC(C)C)NC(=O)[C@H](Cc1ccccc1)NC(=O)[C@H](CCC(=O)O)NC(=O)[C@H](C)NC(=O)[C@H](CC(C)C)NC(=O)[C@H](CCCNC(=N)N)NC(=O)[C@H](CCC(N)=O)NC(=O)[C@@H](NC(=O)[C@H](C)NC(=O)[C@@H]1CSSC[C@H](NC(=O)[C@@H](N)CCCCN)C(=O)N[C@@H](CC(N)=O)C(=O)N[C@@H]([C@@H](C)O)C(=O)N[C@@H](C)C(=O)N[C@@H]([C@@H](C)O)C(=O)N1)[C@@H](C)O)C(C)C)C(=O)N[C@@H](CC(C)C)C(=O)N1CCC[C@H]1C(=O)N1CCC[C@H]1C(=O)N[C@H](C(=O)N[C@@H](CC(N)=O)C(=O)N[C@H](C(=O)NCC(=O)N[C@@H](CO)C(=O)N[C@@H](Cc1c[nH]cn1)C(=O)N[C@H](C(=O)N[C@@H](Cc1ccc(O)cc1)C(N)=O)[C@@H](C)O)C(C)C)[C@@H](C)O [Example 132, N-epsilon21-[2-(2-{2-[2-(2-{2-[(S)-4-Carboxy-4-(19-carboxyheptadecanoylamino)butyrylamino]ethoxy}ethoxy)acetylamino]ethoxy}ethoxy)acetyl]-[Glu14,Lys21,His35]-pramlintide] (H-KCNTATCATQRLAEFLVHSSK([AEEA-AEEA-γGlu-C20 diacid])NFGPILPPTNVGSHTY-NH2; disulfide 2-7)"

# — patent US8722849B2, “Polypeptides” (Novo Nordisk A/S, priority 2011, dated 2014)
